Experimental data reported in patent publication EP4748847A1, “PEPTIDE COMPLEX HAVING VEGFR -2 AGONIST ACTIVITY” (Peptidream Inc, priority 2023, dated 2025).
*1 amine or outer side, *2 acyl side, *3 side chain or, on linkers, in order; H or OH if unused. Where a SMILES comes first, the peptide text is derived from it. Bridges are numbered along the chain shown (N, C = ends). Roman numbers before positions name the chains, in order. [ ]: non-standard residue; d: D form. CO(CH2)2(OCH2CH2)17CO = O=C(CCOCCOCCOCCOCCOCCOCCOCCOCCOCCOCCOCCOCCOCCOCCOCCOCCOCCC(=O)[*:2])[*:1]; X1 = O=C(OCCOCCOCCOCCOCCOCCOCCOCCOCCOCCOCCOCCOCCOCCOCCOCCOC(=O)[*:2])[*:1]; Phe(4-guanidino) = N=C(N)Nc1ccc(C[C@H](N)C(=O)O)cc1; Trp(7-aza) = N[C@@H](Cc1c[nH]c2ncccc12)C(=O)O; hTyr = N[C@@H](CCc1ccc(O)cc1)C(=O)O; h4Pal = N[C@@H](CCc1ccncc1)C(=O)O; tBuAla = CC(C)(C)C[C@H](N)C(=O)O; Tle = CC(C)(C)[C@H](N)C(=O)O

Molecular target: T1, VEGFR-2 (Homo sapiens, UniProt P35968)
T1 construct: endogenous in cells; host or cells: HUVEC
T1 sequence (P35968 20-1356): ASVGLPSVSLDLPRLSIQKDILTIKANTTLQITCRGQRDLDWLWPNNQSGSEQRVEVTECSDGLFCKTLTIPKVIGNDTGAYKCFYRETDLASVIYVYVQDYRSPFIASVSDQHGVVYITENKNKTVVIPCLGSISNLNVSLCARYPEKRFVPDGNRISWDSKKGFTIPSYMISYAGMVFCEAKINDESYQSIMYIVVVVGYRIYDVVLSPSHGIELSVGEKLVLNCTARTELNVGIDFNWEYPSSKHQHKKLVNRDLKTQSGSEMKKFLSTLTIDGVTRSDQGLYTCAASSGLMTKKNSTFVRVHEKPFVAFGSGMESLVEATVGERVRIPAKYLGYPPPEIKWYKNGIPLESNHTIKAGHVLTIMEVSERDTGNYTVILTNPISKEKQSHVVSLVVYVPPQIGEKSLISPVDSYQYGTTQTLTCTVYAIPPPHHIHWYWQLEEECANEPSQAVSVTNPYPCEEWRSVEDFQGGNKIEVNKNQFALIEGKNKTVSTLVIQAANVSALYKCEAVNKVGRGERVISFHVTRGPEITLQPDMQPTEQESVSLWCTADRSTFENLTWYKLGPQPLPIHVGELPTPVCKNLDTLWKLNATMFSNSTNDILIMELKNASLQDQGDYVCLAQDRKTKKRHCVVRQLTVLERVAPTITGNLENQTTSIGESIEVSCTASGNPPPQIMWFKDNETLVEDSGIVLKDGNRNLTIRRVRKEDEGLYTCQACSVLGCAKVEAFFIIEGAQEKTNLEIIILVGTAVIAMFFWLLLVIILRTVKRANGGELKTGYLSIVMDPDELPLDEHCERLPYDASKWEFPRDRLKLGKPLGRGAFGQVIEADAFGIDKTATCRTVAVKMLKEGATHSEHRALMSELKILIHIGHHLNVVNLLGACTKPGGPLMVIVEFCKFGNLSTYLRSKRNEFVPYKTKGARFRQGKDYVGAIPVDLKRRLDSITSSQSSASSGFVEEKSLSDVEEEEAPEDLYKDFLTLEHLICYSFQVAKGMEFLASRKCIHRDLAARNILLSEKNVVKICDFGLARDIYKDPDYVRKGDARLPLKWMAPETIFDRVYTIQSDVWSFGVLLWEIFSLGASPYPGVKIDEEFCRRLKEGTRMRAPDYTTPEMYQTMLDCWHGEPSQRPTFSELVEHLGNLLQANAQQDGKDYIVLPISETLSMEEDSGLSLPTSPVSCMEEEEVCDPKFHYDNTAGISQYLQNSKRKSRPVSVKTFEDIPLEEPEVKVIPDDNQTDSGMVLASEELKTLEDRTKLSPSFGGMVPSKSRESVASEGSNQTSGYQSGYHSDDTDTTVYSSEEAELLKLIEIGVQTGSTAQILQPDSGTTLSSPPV
Assay: pVEGFR AlphaLISA assay (VEGFR-2 phosphorylation, p-Tyr1175) in HUVECs
Assay type: cell-based
Details: 10 minutes stimulation, % activity, maximum VEGF165a signal = 100%, unstimulated = 0%
Experimental: To evaluate the VEGFR-2 activation ability of the VEGFR-2 agonist peptides of the present invention, VEGFR-2 phosphorylation was verified. HUVECs were cultured using EGM™ -2 Endothelial Cell Growth Medium-2 BulletKit (LONZA; CC-3162). After detaching cells using Tryple (Thermo Fisher Scientific), they were seeded into a 96-well PDL-coated plate (Corning: 354461) at a density of 24,000 cells per well and cultured for 2 days. For starvation, the medium was replaced with EBM-2 medium (LONZA) containing 0.5% FBS (Thermo Fisher Scientific), 0.1% heparin (included with the above LONZA CC-3162), and 0.1% gentamicin (Nacalai), and the cells were cultured for 18 hours. Subsequently, Recombinant Human VEGF165a Protein (R&D Systems) or the peptide was added, and the cells were cultured in a CO2 incubator at 37°C. After 10 minutes of stimulation, cells were lysed using the Lysis Buffer included in the AlphaLISA SureFire Ultra VEGFR-2 (p-Tyr1175) Assay Kit (PerkinElmer) to lyse the cells. The procedure was performed according to the kit protocol, and signal detection was performed using a SpectraMax Paradigm multimode microplate reader (Molecular Devices). The obtained signals were analyzed using GraphPad Prism, and % activity was calculated with the maximum signal induced by VEGF165a set as 100% and the unstimulated control as 0%.
The VEGF165a concentration was evaluated at five points (0.08, 0.31, 1.25, 5, 20 nM) using 1/4-fold dilutions starting from 20 nM to determine the maximum value (100%). Peptide concentrations tested were: 3.2, 16, 80 nM for dimer structure number 1; 10, 100 nM for dimer structures numbers 2-41; and 1.25, 5, 20 nM for dimer structures numbers 42-57. […]
Peptides showing 50% or more activity at 10 nM were designated 2-A, those showing 50% or more activity at 100 nM were designated 2-B, and those showing 1% or more but less than 50% activity at 100 nM were designated 2-C.
Peptides showing 50% or more activity at 1.25 nM were designated 3-A, those showing 50% or more activity at 5 nM were designated 3-B, those showing 50% or more activity at 20 nM were designated 3-C, and those showing 1% or more but less than 50% activity at 20 nM were designated 3-D.

[1] = peptide 1.25, 5, 20 nM (dimer structures 42-57)

Row | pVEGFR2 Assay Results (peptide 10, 100 nM (dimer structures 2-41)) | pVEGFR2 Assay Results [1] | Structure (SMILES)
1 | 2-A (50% or more activity at 10 nM) |  | CC(C)C[C@@H]1NC(=O)[C@H](CC(=O)O)NC(=O)[C@H](CC(=O)O)NC(=O)[C@H](CCCCNC(=O)CCOCCOCCOCCOCCOCCOCCOCCOCCOCCOCCOCCOCCOCCOCCOCCOCCOCCC(=O)NCCCC[C@@H]2NC(=O)[C@H](C(C)C)NC(=O)[C@H](CC(=O)O)NC(=O)[C@H](C(C)(C)C)NC(=O)[C@H](Cc3c[nH]c4ccccc34)NC(=O)[C@H](Cc3c[nH]c4ccccc34)NC(=O)CSC[C@@H](C(=O)NCC(N)=O)NC(=O)[C@H](CC(=O)O)NC(=O)[C@H](CCc3ccncc3)NC(=O)[C@H](Cc3ccccc3)NC(=O)[C@H](Cc3ccc(O)cc3)NC(=O)[C@H](CC(C)C)NC(=O)[C@H](CC(=O)O)NC(=O)[C@H](CC(=O)O)NC2=O)NC(=O)[C@H](C(C)C)NC(=O)[C@H](CC(=O)O)NC(=O)[C@H](C(C)(C)C)NC(=O)[C@H](Cc2c[nH]c3ccccc23)NC(=O)[C@H](Cc2c[nH]c3ccccc23)NC(=O)CSC[C@@H](C(=O)NCC(N)=O)NC(=O)[C@H](CC(=O)O)NC(=O)[C@H](CCc2ccncc2)NC(=O)[C@H](Cc2ccccc2)NC(=O)[C@H](Cc2ccc(O)cc2)NC1=O [compound 32] (I: {CH2CO}-WW[Tle]DVKDDLYF[h4Pal]DCG-NH2 / II: {CH2CO}-WW[Tle]DVKDDLYF[h4Pal]DCG-NH2; linker I:6-II:6 via CO(CH2)2(OCH2CH2)17CO; thioether I:N-I:14, II:N-II:14)
2 |  | 3-C (50% or more activity at 20 nM) | CC(C)C[C@@H]1NC(=O)[C@H](CC(=O)O)NC(=O)[C@H](CC(=O)O)NC(=O)[C@H](CCCCNC(=O)CCOCCOCCOCCOCCOCCOCCOCCOCCOCCOCCOCCOCCOCCOCCOCCOCCOCCC(=O)NCCCC[C@@H]2NC(=O)[C@H](C(C)C)NC(=O)[C@H](CC(=O)O)NC(=O)[C@H](C(C)(C)C)NC(=O)[C@H](Cc3c[nH]c4ccccc34)NC(=O)[C@H](Cc3c[nH]c4ccccc34)NC(=O)CSC[C@@H](C(=O)NCC(N)=O)NC(=O)[C@H](CC(=O)O)NC(=O)[C@H](C(C)C)NC(=O)[C@H](Cc3ccc(NC(=N)N)cc3)NC(=O)[C@H](Cc3ccc(O)cc3)NC(=O)[C@H](CC(C)C)NC(=O)[C@H](CC(=O)O)NC(=O)[C@H](CC(=O)O)NC2=O)NC(=O)[C@H](C(C)C)NC(=O)[C@H](CC(=O)O)NC(=O)[C@H](C(C)(C)C)NC(=O)[C@H](Cc2c[nH]c3ccccc23)NC(=O)[C@H](Cc2c[nH]c3ccccc23)NC(=O)CSC[C@@H](C(=O)NCC(N)=O)NC(=O)[C@H](CC(=O)O)NC(=O)[C@H](C(C)C)NC(=O)[C@H](Cc2ccc(NC(=N)N)cc2)NC(=O)[C@H](Cc2ccc(O)cc2)NC1=O [compound 43] (I: {CH2CO}-WW[Tle]DVKDDLY[Phe(4-guanidino)]VDCG-NH2 / II: {CH2CO}-WW[Tle]DVKDDLY[Phe(4-guanidino)]VDCG-NH2; linker I:6-II:6 via CO(CH2)2(OCH2CH2)17CO; thioether I:N-I:14, II:N-II:14)
3 |  | 3-C (50% or more activity at 20 nM) | CC(C)C[C@@H]1NC(=O)[C@H](CC(=O)O)NC(=O)[C@H](CC(=O)O)NC(=O)[C@H](CCCCNC(=O)CCOCCOCCOCCOCCOCCOCCOCCOCCOCCOCCOCCOCCOCCOCCOCCOCCOCCC(=O)NCCCC[C@@H]2NC(=O)[C@H](C(C)C)NC(=O)[C@H](CC(=O)O)NC(=O)[C@H](C(C)(C)C)NC(=O)[C@H](Cc3c[nH]c4ccccc34)NC(=O)[C@H](Cc3c[nH]c4ccccc34)NC(=O)CSC[C@@H](C(=O)NCC(N)=O)NC(=O)[C@H](CC(=O)O)NC(=O)[C@H](CCc3ccc(O)cc3)NC(=O)[C@H](Cc3ccc(NC(=N)N)cc3)NC(=O)[C@H](Cc3ccc(O)cc3)NC(=O)[C@H](CC(C)C)NC(=O)[C@H](CC(=O)O)NC(=O)[C@H](CC(=O)O)NC2=O)NC(=O)[C@H](C(C)C)NC(=O)[C@H](CC(=O)O)NC(=O)[C@H](C(C)(C)C)NC(=O)[C@H](Cc2c[nH]c3ccccc23)NC(=O)[C@H](Cc2c[nH]c3ccccc23)NC(=O)CSC[C@@H](C(=O)NCC(N)=O)NC(=O)[C@H](CC(=O)O)NC(=O)[C@H](CCc2ccc(O)cc2)NC(=O)[C@H](Cc2ccc(NC(=N)N)cc2)NC(=O)[C@H](Cc2ccc(O)cc2)NC1=O [compound 45] (I: {CH2CO}-WW[Tle]DVKDDLY[Phe(4-guanidino)][hTyr]DCG-NH2 / II: {CH2CO}-WW[Tle]DVKDDLY[Phe(4-guanidino)][hTyr]DCG-NH2; linker I:6-II:6 via CO(CH2)2(OCH2CH2)17CO; thioether I:N-I:14, II:N-II:14)
4 |  | 3-C (50% or more activity at 20 nM) | CC(C)C[C@@H]1NC(=O)[C@H](CC(=O)O)NC(=O)[C@H](CC(=O)O)NC(=O)[C@H](CCCCNC(=O)CCOCCOCCOCCOCCOCCOCCOCCOCCOCCOCCOCCOCCOCCOCCOCCOCCOCCC(=O)NCCCC[C@@H]2NC(=O)[C@H](C(C)C)NC(=O)[C@H](CC(=O)O)NC(=O)[C@H](C(C)(C)C)NC(=O)[C@H](Cc3c[nH]c4ccccc34)NC(=O)[C@H](Cc3c[nH]c4ncccc34)NC(=O)CSC[C@@H](C(=O)NCC(N)=O)NC(=O)[C@H](CC(=O)O)NC(=O)[C@H](CCc3ccc(O)cc3)NC(=O)[C@H](Cc3ccccc3)NC(=O)[C@H](Cc3ccc(O)cc3)NC(=O)[C@H](CC(C)C)NC(=O)[C@H](CC(=O)O)NC(=O)[C@H](CC(=O)O)NC2=O)NC(=O)[C@H](C(C)C)NC(=O)[C@H](CC(=O)O)NC(=O)[C@H](C(C)(C)C)NC(=O)[C@H](Cc2c[nH]c3ccccc23)NC(=O)[C@H](Cc2c[nH]c3ncccc23)NC(=O)CSC[C@@H](C(=O)NCC(N)=O)NC(=O)[C@H](CC(=O)O)NC(=O)[C@H](CCc2ccc(O)cc2)NC(=O)[C@H](Cc2ccccc2)NC(=O)[C@H](Cc2ccc(O)cc2)NC1=O [compound 46] (I: {CH2CO}-[Trp(7-aza)]W[Tle]DVKDDLYF[hTyr]DCG-NH2 / II: {CH2CO}-[Trp(7-aza)]W[Tle]DVKDDLYF[hTyr]DCG-NH2; linker I:6-II:6 via CO(CH2)2(OCH2CH2)17CO; thioether I:N-I:14, II:N-II:14)
5 |  | 3-C (50% or more activity at 20 nM) | CC(C)C[C@@H]1NC(=O)[C@H](CC(=O)O)NC(=O)[C@H](CC(N)=O)NC(=O)[C@H](CCCCNC(=O)CCOCCOCCOCCOCCOCCOCCOCCOCCOCCOCCOCCOCCOCCOCCOCCOCCOCCC(=O)NCCCC[C@@H]2NC(=O)[C@H](C(C)C)NC(=O)[C@H](CC(=O)O)NC(=O)[C@H](C(C)(C)C)NC(=O)[C@H](Cc3c[nH]c4ccccc34)NC(=O)[C@H](Cc3c[nH]c4ccccc34)NC(=O)CSC[C@@H](C(=O)NCC(N)=O)NC(=O)[C@H](CC(=O)O)NC(=O)[C@H](CCc3ccc(O)cc3)NC(=O)[C@H](Cc3ccccc3)NC(=O)[C@H](Cc3ccc(O)cc3)NC(=O)[C@H](CC(C)C)NC(=O)[C@H](CC(=O)O)NC(=O)[C@H](CC(N)=O)NC2=O)NC(=O)[C@H](C(C)C)NC(=O)[C@H](CC(=O)O)NC(=O)[C@H](C(C)(C)C)NC(=O)[C@H](Cc2c[nH]c3ccccc23)NC(=O)[C@H](Cc2c[nH]c3ccccc23)NC(=O)CSC[C@@H](C(=O)NCC(N)=O)NC(=O)[C@H](CC(=O)O)NC(=O)[C@H](CCc2ccc(O)cc2)NC(=O)[C@H](Cc2ccccc2)NC(=O)[C@H](Cc2ccc(O)cc2)NC1=O [compound 47] (I: {CH2CO}-WW[Tle]DVKNDLYF[hTyr]DCG-NH2 / II: {CH2CO}-WW[Tle]DVKNDLYF[hTyr]DCG-NH2; linker I:6-II:6 via CO(CH2)2(OCH2CH2)17CO; thioether I:N-I:14, II:N-II:14)
6 |  | 3-B (50% or more activity at 5 nM) | CC(C)[C@@H]1NC(=O)[C@H](CC(=O)O)NC(=O)[C@H](C(C)(C)C)NC(=O)[C@H](Cc2c[nH]c3ccccc23)NC(=O)[C@H](Cc2c[nH]c3ccccc23)NC(=O)CSC[C@@H](C(=O)NCC(N)=O)NC(=O)[C@H](CC(=O)O)NC(=O)[C@H](CCc2ccc(O)cc2)NC(=O)[C@H](Cc2ccc(NC(=N)N)cc2)NC(=O)[C@H](Cc2ccc(O)cc2)NC(=O)[C@H](CC(C)(C)C)NC(=O)[C@H](CC(=O)O)NC(=O)[C@H](CC(=O)O)NC(=O)[C@H](CCCCNC(=O)OCCOCCOCCOCCOCCOCCOCCOCCOCCOCCOCCOCCOCCOCCOCCOCCOC(=O)NCCCC[C@@H]2NC(=O)[C@H](C(C)C)NC(=O)[C@H](CC(=O)O)NC(=O)[C@H](C(C)(C)C)NC(=O)[C@H](Cc3c[nH]c4ccccc34)NC(=O)[C@H](Cc3c[nH]c4ccccc34)NC(=O)CSC[C@@H](C(=O)NCC(N)=O)NC(=O)[C@H](CC(=O)O)NC(=O)[C@H](CCc3ccc(O)cc3)NC(=O)[C@H](Cc3ccc(NC(=N)N)cc3)NC(=O)[C@H](Cc3ccc(O)cc3)NC(=O)[C@H](CC(C)(C)C)NC(=O)[C@H](CC(=O)O)NC(=O)[C@H](CC(=O)O)NC2=O)NC1=O [compound 53] (I: {CH2CO}-WW[Tle]DVKDD[tBuAla]Y[Phe(4-guanidino)][hTyr]DCG-NH2 / II: {CH2CO}-WW[Tle]DVKDD[tBuAla]Y[Phe(4-guanidino)][hTyr]DCG-NH2; linker I:6-II:6 via X1; thioether I:N-I:14, II:N-II:14)
